Measurements from PubChem BioAssay (NCI).
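Five concentrations, 48 hours, 96-well plates. At the GI50, growth is halved. TGI: concentration producing complete growth inhibition.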

Tests used:
Assay in all cases: growth of human tumour cells (NCI), 48 h
KM12 colon = system: KM12 colon
COLO 205 colon = system: COLO 205 colon
SNB-75 CNS = system: SNB-75 CNS
SF-295 CNS = system: SF-295 CNS
SK-MEL-5 melanoma = system: SK-MEL-5 melanoma
CAKI-1 renal = system: CAKI-1 renal
OVCAR-8 ovarian = system: OVCAR-8 ovarian
SN12C renal = system: SN12C renal
SW-620 colon = system: SW-620 colon
NCI/ADR-RES ovarian = system: NCI/ADR-RES ovarian

`COC(=O)C1=C(c2ccc3c(c2)OCO3)O[C@H](c2ccc3c(c2)OCO3)[C@H]1COC(C)=O` gave a TGI (KM12 colon) of over 100 µM, a TGI (COLO 205 colon) of 28.9 µM and a TGI (SNB-75 CNS) of over 100 µM. For the same compound, the TGI (SF-295 CNS) was over 100 µM, the TGI (SK-MEL-5 melanoma) was 75.2 µM and the TGI (CAKI-1 renal) was over 100 µM. It also gave a TGI (OVCAR-8 ovarian) of over 100 µM, a TGI (SN12C renal) of over 100 µM and a TGI (SW-620 colon) of over 100 µM.

Work on `COC(=O)CSc1n[nH]c(-c2ccc(O)c([N+](=O)[O-])c2)n1` yielded a TGI (SNB-75 CNS) of over 100 µM, a TGI (SF-295 CNS) of over 100 µM and a TGI (SK-MEL-5 melanoma) of over 100 µM. The TGI (CAKI-1 renal) was over 100 µM, the TGI (OVCAR-8 ovarian) was over 100 µM and the TGI (SN12C renal) was over 100 µM. For the same compound, the TGI (SW-620 colon) was over 100 µM.

`COc1ccc(OC)c(/C=C/NC=O)c1` was tested, and the TGI (KM12 colon) was over 100 µM, the TGI (COLO 205 colon) was over 100 µM and the TGI (SNB-75 CNS) was over 100 µM. The TGI (SF-295 CNS) was over 100 µM, the TGI (SK-MEL-5 melanoma) was over 100 µM and the TGI (CAKI-1 renal) was over 100 µM. For the same compound, the TGI (OVCAR-8 ovarian) was over 100 µM, the TGI (SN12C renal) was over 100 µM and the TGI (SW-620 colon) was over 100 µM.

`CCOC(=O)c1c(C)n(Cc2ccc(OC)cc2)c2c1cc(O)c1[nH]c3c(c12)CCCC3` showed a GI50 (KM12 colon) of 2.04 µM, a TGI (KM12 colon) of 5.43 µM and a GI50 (COLO 205 colon) of 0.0865 µM. For the same compound, the TGI (COLO 205 colon) was 8.35 µM, the GI50 (SNB-75 CNS) was 4.77 µM and the TGI (SNB-75 CNS) was over 100 µM. For the same compound, the GI50 (SF-295 CNS) was 13.7 µM, the TGI (SF-295 CNS) was 42.8 µM and the GI50 (SK-MEL-5 melanoma) was 1.74 µM. For the same compound, the TGI (SK-MEL-5 melanoma) was 3.24 µM, the GI50 (CAKI-1 renal) was 16.4 µM and the TGI (CAKI-1 renal) was 54.9 µM. The GI50 (OVCAR-8 ovarian) was 3.05 µM, the TGI (OVCAR-8 ovarian) was 10.9 µM and the GI50 (SN12C renal) was 7.79 µM. It also gave a TGI (SN12C renal) of 28.9 µM, a GI50 (SW-620 colon) of 3.72 µM and a TGI (SW-620 colon) of 13.9 µM.

In the case of `CC(C)=CC(=O)N1CCN(C(=O)C=C(C)C)CC1`, the TGI (KM12 colon) is reported as over 100 µM, the TGI (SNB-75 CNS) is reported as over 100 µM and the TGI (SF-295 CNS) is reported as over 100 µM. The TGI (SK-MEL-5 melanoma) was over 100 µM, the TGI (CAKI-1 renal) was over 100 µM and the TGI (OVCAR-8 ovarian) was over 100 µM. For the same compound, the TGI (SN12C renal) was over 100 µM and the TGI (SW-620 colon) was over 100 µM.

For `O=S(O)CCCCSSCCCCSSCCCCS(=O)O`, the TGI (KM12 colon) was over 100 µM, the TGI (COLO 205 colon) was 83.6 µM and the TGI (SNB-75 CNS) was over 100 µM. For the same compound, the TGI (SF-295 CNS) was over 100 µM, the TGI (SK-MEL-5 melanoma) was 24.3 µM and the TGI (CAKI-1 renal) was over 100 µM. It also gave a TGI (OVCAR-8 ovarian) of over 100 µM, a TGI (SN12C renal) of over 100 µM and a TGI (SW-620 colon) of over 100 µM.

Compound `COc1cc2c3c(n(CCCCl)c(=O)c2cc1OC)-c1ccccc1C3=O` has a GI50 (KM12 colon) of over 100 µM, a TGI (KM12 colon) of over 100 µM and a GI50 (NCI/ADR-RES ovarian) of 6.36 µM. For the same compound, the TGI (NCI/ADR-RES ovarian) was over 100 µM, the GI50 (SF-295 CNS) was 0.845 µM and the TGI (SF-295 CNS) was 13.3 µM. It also gave a GI50 (SK-MEL-5 melanoma) of 21.9 µM, a TGI (SK-MEL-5 melanoma) of over 100 µM and a GI50 (CAKI-1 renal) of 1.44 µM. For the same compound, the TGI (CAKI-1 renal) was 7.6 µM, the GI50 (OVCAR-8 ovarian) was 13.4 µM and the TGI (OVCAR-8 ovarian) was over 100 µM. It also gave a GI50 (SN12C renal) of over 100 µM and a TGI (SN12C renal) of over 100 µM.

Compound `CCCCCCCCCCCCCCCCOP(=O)(O)Oc1ccc(/C=C\c2ccc(OP(=O)(O)OCCCCCCCCCCCCCCCC)cc2)cc1` has a TGI (KM12 colon) of over 100 µM, a TGI (COLO 205 colon) of 33.6 µM and a TGI (SNB-75 CNS) of 80.8 µM. The TGI (SF-295 CNS) was over 100 µM, the TGI (SK-MEL-5 melanoma) was over 100 µM and the TGI (CAKI-1 renal) was over 100 µM. The TGI (OVCAR-8 ovarian) was 56.1 µM, the TGI (SN12C renal) was over 100 µM and the TGI (SW-620 colon) was over 100 µM.

Compound `COc1ccc(C(=O)O)c(Cc2cccc3ccccc23)c1` has a TGI (KM12 colon) of over 100 µM, a TGI (COLO 205 colon) of over 100 µM and a TGI (SNB-75 CNS) of over 100 µM. For the same compound, the TGI (SF-295 CNS) was over 100 µM, the TGI (SK-MEL-5 melanoma) was over 100 µM and the TGI (CAKI-1 renal) was over 100 µM. The TGI (OVCAR-8 ovarian) was over 100 µM, the TGI (SN12C renal) was over 100 µM and the TGI (SW-620 colon) was over 100 µM.

With `CNC=O.[O]=[Ge].[O]=[Ge].[O]=[Ge].[O]=[Ge][OH].[O]=[Ge][OH]` the TGI (KM12 colon) was over 100 µM, the TGI (SNB-75 CNS) was over 100 µM and the TGI (SF-295 CNS) was over 100 µM. For the same compound, the TGI (SK-MEL-5 melanoma) was over 100 µM, the TGI (CAKI-1 renal) was over 100 µM and the TGI (OVCAR-8 ovarian) was over 100 µM. For the same compound, the TGI (SN12C renal) was over 100 µM and the TGI (SW-620 colon) was over 100 µM.
